Reference: US20240269304A1, “BCL-XL INHIBITOR ANTIBODY-DRUG CONJUGATES AND METHODS OF USE THEREOF” (Novartis AG, priority 2020, published 2024)
Like-named read-outs stand apart in the source and are kept apart here.

Assays:
SUDHL8 (DLBCL) = test: CellTiter-Glo viability 72 h, single agent or 1/1 combination, SUDHL8 (Example 9); format: cell-based; settings: Homo sapiens, SU-DHL-8, single agent or 1/1 combination as labelled
Description: (§1) Cell lines were cultured in the media described above at 37° C. in a humidified atmosphere containing 5% CO2. Cells were seeded in 96 well clear bottom plates (96 well clear-bottom, white, Corning reference 3903) and exposed to the payloads or ADCs at single agents or in 1/1 combinations with vincristine, ABT-199 or compound A2 for 72 h (serially diluted; 9 concentrations each, triplicates). Effects of payloads or ADCs on cell viability were assessed after 3 days of incubation at 37° C./5% CO2 by quantification of cellular ATP levels using CellTiter-Glo reagent (Promega Ref: G7571) at 75 μL reagent/well. All the conditions were tested in triplicates. Luminescence was quantified on a multipurpose plate reader. IC50s were calculated using standard four-parametric curve fitting. […] Each experiment was performed at least twice, with results being reproducible.

MM1S (MM) = test: CellTiter-Glo viability 72 h, single agent or 1/1 combination, MM1S (Example 9); format: cell-based; settings: Homo sapiens, MM1.S, single agent or 1/1 combination as labelled
Description: as §1

ALL-SILL (T-ALL) = test: CellTiter-Glo viability 72 h, single agent or 1/1 combination, ALL-SIL (Example 9); format: cell-based; settings: single agent or 1/1 combination as labelled
Description: Cell lines were cultured in the media described above at 37° C. in a humidified atmosphere containing 5% CO2. […] Effects of payloads or ADCs on cell viability were assessed after 3 days of incubation at 37° C./5% CO2 by quantification of cellular ATP levels using CellTiter-Glo reagent (Promega Ref: G7571) at 75 μL reagent/well. All the conditions were tested in triplicates. Luminescence was quantified on a multipurpose plate reader. IC50s were calculated using standard four-parametric curve fitting.

HPB-ALL (T-ALL) = test: CellTiter-Glo viability 72 h, single agent or 1/1 combination with vincristine, ABT-199 or Compound A2, HPB-ALL (Example 9); format: cell-based; settings: Homo sapiens, HPBALL, single agent or 1/1 combination as labelled
Description: as §1

LOUCY (T-ALL) = test: CellTiter-Glo viability 72 h, single agent or 1/1 combination, LOUCY (Example 9); format: cell-based; settings: single agent or 1/1 combination as labelled
Description: as §1

H1650 cells = test: CellTiterGlo (CTG) cell viability, 3D, 120 h, H1650 (Example 8); format: cell-based, human; settings: Homo sapiens, NCI-H1650, H1650 3D
[1] = mean, read-out: SUDHL8 (DLBCL) IC50 mean
[2] = n1, read-out: SUDHL8 (DLBCL) IC50 n1
[3] = n2, read-out: SUDHL8 (DLBCL) IC50 n2
[4] = mean, read-out: MM1S (MM) IC50 mean
[5] = n1, read-out: MM1S (MM) IC50 n1
[6] = n2, read-out: MM1S (MM) IC50 n2
[7] = mean, read-out: ALL-SILL (T-ALL) IC50 mean
[8] = n1, read-out: ALL-SILL (T-ALL) IC50 n1
[9] = n2, read-out: ALL-SILL (T-ALL) IC50 n2
[10] = mean, read-out: HPB-ALL (T-ALL) IC50 mean
[11] = n1, read-out: HPB-ALL (T-ALL) IC50 n1
[12] = n2, read-out: HPB-ALL (T-ALL) IC50 n2
[13] = mean, read-out: LOUCY (T-ALL) IC50 mean
[14] = n1, read-out: LOUCY (T-ALL) IC50 n1
[15] = n2, read-out: LOUCY (T-ALL) IC50 n2

| IC50 (SUDHL8 (DLBCL); [1]) [nM] | IC50 (SUDHL8 (DLBCL); [2]) [nM] | IC50 (SUDHL8 (DLBCL); [3]) [nM] | IC50 (MM1S (MM); [4]) [nM] | IC50 (MM1S (MM); [5]) [nM] | IC50 (MM1S (MM); [6]) [nM] | IC50 (H1650 cells; experiment n1, read-out: H1650 3D CTG IC50 n1) [nM] | IC50 (H1650 cells; experiment n2, read-out: H1650 3D CTG IC50 n2) [nM] | IC50 (H1650 cells; mean of n1 and n2, read-out: H1650 3D CTG IC50 Mean of n1 and n2) [nM] | SMILES | IC50 (ALL-SILL (T-ALL); [7]) [nM] | IC50 (ALL-SILL (T-ALL); [8]) [nM] | IC50 (ALL-SILL (T-ALL); [9]) [nM] | IC50 (HPB-ALL (T-ALL); [10]) [nM] | IC50 (HPB-ALL (T-ALL); [11]) [nM] | IC50 (HPB-ALL (T-ALL); [12]) [nM] | IC50 (LOUCY (T-ALL); [13]) [nM] | IC50 (LOUCY (T-ALL); [14]) [nM] | IC50 (LOUCY (T-ALL); [15]) [nM] |
| --- | --- | --- | --- | --- | --- | --- | --- | --- | --- | --- | --- | --- | --- | --- | --- | --- | --- | --- |
| 5740 | 6670 | 4820 | 7360 | 7360 | 7360 | – | – | – | Cc1c(N(C(=O)c2cc(-c3cc(Cl)ccc3C(=O)N3Cc4ccccc4C[C@H]3CN3CCOCC3)n(C)c2C)c2ccc(O)cc2)cc(C#N)n1C [Compound A2, reference compound] | 124 | 128 | 121 | 6080 | 5850 | 6300 | 35.5 | 30 | 41 |
| 7.78 | 5.92 | 9.64 | 74.8 | 56.7 | 92.9 | 2.8 | 3 | 2.9 | Cc1c(Nc2nc3ccccc3s2)nnc2c1CCCN2c1ccc(-c2cnn(CC34CC5(C)CC(C)(C3)CC(OCCNCCCO)(C5)C4)c2C)c(C(=O)O)n1 [P25, 6-[3-(1,3-benzothiazol-2-ylamino)-4-methyl-6,7-dihydro-5H-pyrido[2,3-c]pyridazin-8-yl]-3-[1-[[3-[2-(3-hydroxypropylamino)ethoxy]-5,7-dimethyl-1-adamantyl]methyl]-5-methyl-pyrazol-4-yl]pyridine-2-carboxylic acid] | 1.75 | 2.1 | 1.39 | 4.6 | 4.2 | 5 | 1.03 | 0.8 | 1.26 |

| SMILES | IC50 (SUDHL8 (DLBCL); [1]) [nM] | IC50 (SUDHL8 (DLBCL); [2]) [nM] | IC50 (SUDHL8 (DLBCL); [3]) [nM] | IC50 (MM1S (MM); [4]) [nM] | IC50 (MM1S (MM); [5]) [nM] | IC50 (MM1S (MM); [6]) [nM] | IC50 (H1650 cells; experiment n1, read-out: H1650 3D CTG IC50 n1) [nM] | IC50 (H1650 cells; experiment n2, read-out: H1650 3D CTG IC50 n2) [nM] | IC50 (H1650 cells; mean of n1 and n2, read-out: H1650 3D CTG IC50 Mean of n1 and n2) [nM] | IC50 (ALL-SILL (T-ALL); [7]) [nM] | IC50 (ALL-SILL (T-ALL); [8]) [nM] | IC50 (ALL-SILL (T-ALL); [9]) [nM] | IC50 (HPB-ALL (T-ALL); [10]) [nM] | IC50 (HPB-ALL (T-ALL); [11]) [nM] | IC50 (HPB-ALL (T-ALL); [12]) [nM] | IC50 (LOUCY (T-ALL); [13]) [nM] | IC50 (LOUCY (T-ALL); [14]) [nM] | IC50 (LOUCY (T-ALL); [15]) [nM] |
| --- | --- | --- | --- | --- | --- | --- | --- | --- | --- | --- | --- | --- | --- | --- | --- | --- | --- | --- |
| CC1(C)CCC(CN2CCN(c3ccc(C(=O)NS(=O)(=O)c4ccc(NCC5CCOCC5)c([N+](=O)[O-])c4)c(Oc4cnc5[nH]ccc5c4)c3)CC2)=C(c2ccc(Cl)cc2)C1 [ABT-199, reference compound] | 6140 | 4820 | 7460 | 4540 | 4470 | 4600 | – | – | – | 224 | 234 | 213 | 9060 | 8920 | 9210 | 24.5 | 19 | 30 |
